Residues, ends and D or L forms follow the SMILES beside them.
Key:
Format in all cases: cell-based
[1] = test system: HIV-1 NL4-3 E49K; conditions: HP23-resistant E49K; p24 ELISA; mean ± SD of three independent experiments
Experimental: (§1) Inhibitory activities of peptides on infection by HIV-1 X4 strain IIIB, R5 strain Bal, and T20-, T2635-, HP23-resistant strains were determined as previously described [42]. For each well of a 96-well plate, 50 μL of a peptide were mixed with 50 μL of 100 × TCID50 (50% tissue culture infective doses) of HIV-1 live virus and incubated at 37 °C for 30 min. Afterwards, 2 × 10^4 MT-2 (for X4 virus) or CEMx174 5.25 M7 cells (for R5 virus) were added. After overnight culture, the supernatant was replaced with fresh RPMI-1640 medium containing 10% fetal bovine serum (FBS). After further culture at 37 °C for three days, 50 μL of the culture medium were collected and mixed with equal volume of 5% (v/v) Triton X-100. The p24 antigen, which represents HIV-1 quantity, was detected by ELISA. Briefly, the collected mixtures were added to a plate coated with anti-HIV Immune Globulin (HIVIG) from the NIH AIDS Reagent Program. Anti-p24 mAb 183, rabbit anti-mouse IgG-HRP (Dako, Glostrup, Denmark) and substrate 3,3,5,5-TMB (Sigma-Aldrich, New York, NY) were added and washed away sequentially. The absorbance at 450 nm (A450) was determined by a Multi-Detection Microplate Reader (Ultra 384, Tecan, Tokyo, Japan). IC50s were calculated using Calcusyn software (Biosoft, Ferguson, MO), and the lines of best fit were drawn using GraphPad Prism 8 software (La Jolla, CA).

[2] = test system: HIV-1 LAI K90E/N126K; conditions: T2635-resistant K90E/N126K; p24 ELISA; mean ± SD of three independent experiments
Experimental: as §1

[3] = test system: HIV-1 NL4-3 (D36G) N42T, N43K; conditions: T20-resistant (D36G) N42T, p24 ELISA, mean ± SD of three independent experiments
Experimental: as §1

[4] = test system: HIV-1 LAI K90E; conditions: T2635-resistant K90E; p24 ELISA; mean ± SD of three independent experiments
Experimental: as §1

[5] = test system: HIV-1 NL4-3 E49K/N126K; conditions: HP23-resistant E49K/N126K; p24 ELISA; mean ± SD of three independent experiments
Experimental: as §1

[6] = test system: HIV-1 LAI Q66R; conditions: T2635-resistant Q66R; p24 ELISA; mean ± SD of three independent experiments
Experimental: as §1

[7] = test system: HIV-1 NL4-3 (D36G) V38A, N42D; conditions: T20-resistant (D36G) V38A, p24 ELISA, mean ± SD of three independent experiments
Experimental: (§2) For each well of a 96-well plate, 50 μL of a peptide were mixed with 50 μL of 100 × TCID50 (50% tissue culture infective doses) of HIV-1 live virus and incubated at 37 °C for 30 min. Afterwards, 2 × 10^4 MT-2 (for X4 virus) or CEMx174 5.25 M7 cells (for R5 virus) were added. After overnight culture, the supernatant was replaced with fresh RPMI-1640 medium containing 10% fetal bovine serum (FBS). After further culture at 37 °C for three days, 50 μL of the culture medium were collected and mixed with equal volume of 5% (v/v) Triton X-100. The p24 antigen, which represents HIV-1 quantity, was detected by ELISA. Briefly, the collected mixtures were added to a plate coated with anti-HIV Immune Globulin (HIVIG) from the NIH AIDS Reagent Program. Anti-p24 mAb 183, rabbit anti-mouse IgG-HRP (Dako, Glostrup, Denmark) and substrate 3,3,5,5-TMB (Sigma-Aldrich, New York, NY) were added and washed away sequentially. The absorbance at 450 nm (A450) was determined by a Multi-Detection Microplate Reader (Ultra 384, Tecan, Tokyo, Japan). IC50s were calculated using Calcusyn software (Biosoft, Ferguson, MO), and the lines of best fit were drawn using GraphPad Prism 8 software (La Jolla, CA).

[8] = test system: cell-cell fusion between H9/IIIB cells and MT-2 cells; experiment: HIV-1-mediated cell-cell fusion (dye transfer assay); conditions: Calcein AM dye transfer; peptide 37 °C 30 min, then MT-2 cells 2 h; read-out: IC50 against cell-cell fusion between H9/IIIB cells and MT-2 cells
Experimental: A dye transfer assay was performed to detect HIV-1 Env-mediated cell-cell fusion as described previously. Briefly, for each well of a 96-well plate, 2 × 10^3 H9/IIIB cells labeled with the fluorescent reagent Calcein AM (Molecular Probes, Inc., Eugene, Oregon) were incubated with a CHR-peptide at 37 °C for 30 min. Afterwards, 10^4 MT-2 cells were added and incubated at 37 °C for 2 h. The fused and unfused Calcein-labeled H9/IIIB cells were counted under an inverted fluorescence microscope (Zeiss, Oberkochen, Germany). The IC50 values were calculated by using the Calcusyn computer program (Biosoft, Ferguson, MO).

[9] = test system: HIV-1 LAI (WT); conditions: p24 ELISA, mean ± SD of three independent experiments
[10] = test system: HIV-1 LAI A6V; conditions: T2635-resistant A6V; p24 ELISA; mean ± SD of three independent experiments
Experimental: as §1

[11] = test system: HIV-1 LAI Q79E/N126K; conditions: T2635-resistant Q79E/N126K; p24 ELISA; mean ± SD of three independent experiments
Experimental: as §1

[12] = test system: HIV-1 NL4-3 D36G/E49K/N126K; conditions: HP23-resistant D36G/E49K/N126K; p24 ELISA; mean ± SD of three independent experiments
Experimental: as §1

[13] = test system: HIV-1 NL4-3 (D36G) V38A; conditions: T20-resistant (D36G) V38A; p24 ELISA; mean ± SD of three independent experiments
Experimental: as §2

[14] = test system: HIV-1 NL4-3 L34S/D36G/E49K/E136G; conditions: HP23-resistant L34S/D36G/E49K/E136G; p24 ELISA; mean ± SD of three independent experiments
Experimental: as §1

[15] = test system: HIV-1 NL4-3 D36G (WT); conditions: p24 ELISA, mean ± SD of three independent experiments
Experimental: as §1

[16] = test system: HIV-1 LAI K154Q; conditions: T2635-resistant K154Q; p24 ELISA; mean ± SD of three independent experiments
Experimental: as §1

[17] = test system: HIV-1 NL4-3 (WT); conditions: p24 ELISA, mean ± SD of three independent experiments
Experimental: as §1

[18] = test system: HIV-1 NL4-3 (D36G) V38E, N42S; conditions: T20-resistant (D36G) V38E, p24 ELISA, mean ± SD of three independent experiments
Experimental: as §1

[19] = test system: HIV-1IIIB (X4 virus)
Experimental: To determine whether a peptide binds with the target cells in order to execute its anti-HIV-1 activity, cell wash and nonwash assays were performed as previously described. Briefly, 2 × 10^4 MT-2 cells were incubated with a peptide at 4 °C for 30 min, followed by washes of the pretreated cells to remove the unbound peptide (control: without washes) before addition of HIV-1IIIB (100 × TCID50). After culture at 37 °C overnight, the supernatant was replaced by fresh RPMI-1640 medium containing 10% FBS. The inhibitory activity of the cell-bound peptide in the wash group and free peptide in the nonwash group was determined as described above.

[20] = test system: HIV-1 NL4-3 (D36G) V38A, N42T; conditions: T20-resistant (D36G) V38A, p24 ELISA, mean ± SD of three independent experiments
Experimental: as §1

For `CC[C@H](C)[C@H](NC(=O)[C@H](CCC(N)=O)NC(=O)[C@H](CCC(N)=O)NC(=O)[C@H](CC(N)=O)NC(=O)[C@H](CCC(N)=O)NC(=O)[C@H](CO)NC(=O)[C@H](CCCCN)NC(=O)[C@H](CCCCN)NC(=O)[C@H](CC(C)C)NC(=O)[C@@H](NC(=O)[C@H](CCC(=O)O)NC(=O)[C@H](CCC(=O)O)NC(=O)[C@@H](NC(=O)[C@H](CCCCN)NC(=O)[C@H](CCCCN)NC(=O)[C@@H](NC(=O)[C@H](Cc1ccc(O)cc1)NC(=O)[C@H](CCC(=O)O)NC(=O)[C@H](CCC(=O)O)NC(=O)[C@@H](NC(=O)[C@H](CCCCN)NC(=O)[C@H](CCCCN)NC(=O)[C@H](CCC(=O)O)NC(=O)[C@H](Cc1c[nH]c2ccccc12)NC(=O)[C@H](CCC(=O)O)NC(=O)[C@H](CCC(=O)O)NC(=O)[C@H](Cc1c[nH]c2ccccc12)NC(=O)[C@@H](NC(=O)[C@H](CCSC)NC(=O)[C@@H](N)CCC(=O)O)[C@@H](C)O)[C@@H](C)CC)[C@@H](C)O)[C@@H](C)CC)[C@@H](C)CC)C(=O)N[C@@H](CC(=O)O)C(=O)N[C@@H](CC(C)C)C(=O)O` [HP23-E6-IDL] (H-EMTWEEWEKKIEEYTKKIEEILKKSQNQQIDL-OH), the IC50 [1] was 2.04 ± 0.126 nM, the IC50 [2] was 0.842 ± 0.066 nM and the IC50 [3] was 0.941 ± 0.019 nM. It also gave an IC50 [4] of 1.42 ± 0.242 nM, an IC50 [5] of 2.56 ± 0.318 nM and an IC50 [6] of 0.496 ± 0.168 nM. The IC50 [7] was 1.54 ± 0.253 nM, the IC50 [8] was 1.14 nM and the IC50 [9] was 0.932 ± 0.059 nM. It also gave an IC50 [10] of 0.349 ± 0.019 nM, an IC50 [11] of 1.31 ± 0.059 nM and an IC50 [12] of 3.14 ± 0.4 nM. It also gave an IC50 [13] of 0.647 ± 0.024 nM, an IC50 [14] of 4.94 ± 1.1 nM and an IC50 [15] of 0.912 ± 0.029 nM. The IC50 [16] was 1.25 ± 0.249 nM, the IC50 [17] was 0.699 ± 0.025 nM and the IC50 [18] was 0.748 ± 0.012 nM. It also gave an IC50 [19] of 2.4 nM and an IC50 [20] of 0.838 ± 0.031 nM.

— publication PMC6470885 (Molecules, 2019)
